Data: ChEMBL document CHEMBL1201862, “PubChem BioAssay data set” (2004)
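In this assay, cells in 96-well plates receive the compound at five concentrations for 48 hours. Endpoints are linearly interpolated between the surrounding concentrations. GI50: concentration for 50% inhibition of growth.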 The source made the active and inactive calls. Cut-off read from the data, not from the text of the source: active = GI50 up to about 1.1 µM and inactive = higher.

Legend:
Experiment in all cases: inhibition of tumour cell growth, NCI panel, 48 h
[1] = tested on: SK-MEL-28
[2] = tested on: CAKI-1
[3] = tested on: Malme-3M
[4] = tested on: SW-620
[5] = tested on: HOP-62
[6] = tested on: KM12
[7] = tested on: NCI-H522
[8] = tested on: ACHN
[9] = tested on: OVCAR-8
[10] = tested on: UACC-257
[11] = tested on: UACC-62
[12] = tested on: COLO 205
[13] = tested on: SK-MEL-2

Row | Compound | GI50 [1] | GI50 [2] | GI50 [3] | GI50 [4] | GI50 [5] | GI50 [6] | GI50 [7] | GI50 [8] | GI50 [9] | GI50 [10] | GI50 [11] | GI50 [12] | GI50 [13]
1 | COc1cccc(/C=C\c2cc(OC)c(OC)c(OC)c2)c1 | 0.507 µM (active) | 0.887 µM (active) | 0.585 µM (active) | 0.656 µM (active) | 1.51 µM (inactive) | 0.543 µM (active) | 0.375 µM (active) | 5.79 µM (inactive) | 3.49 µM (inactive) | 0.505 µM (active) | 0.455 µM (active) | 0.807 µM (active) | 
2 | COc1ccc2nc3cccc(C(=O)NCCN(C)C)c3nc2c1 | 2.25 µM (inactive) |  | 0.571 µM (active) | 0.573 µM (active) | 1.45 µM (inactive) | 1.3 µM (inactive) | 2.73 µM (inactive) | 0.689 µM (active) | 1.46 µM (inactive) | 2.64 µM (inactive) | 2.24 µM (inactive) | 1.75 µM (inactive) | 1.59 µM (inactive)
3 | O=C1C(=O)N(c2ccc(Cl)cc2Cl)C(=O)C(=O)C1c1nc2ccccc2s1 | > 87.9 µM (inactive) | 64.1 µM (inactive) | > 100 µM (inactive) | > 78.3 µM (inactive) | > 100 µM (inactive) | > 100 µM (inactive) | 24.5 µM (inactive) | > 100 µM (inactive) | > 100 µM (inactive) | > 100 µM (inactive) | 78.3 µM (inactive) | > 100 µM (inactive) | > 100 µM (inactive)
4 | N#Cc1nn(-c2ccc(Cl)cc2)c(=N)c2c(N)n3nc(-c4ccccc4)cc3nc12 | 1 µM (active) | 1 µM (active) | 1 µM (active) | > 100 µM (inactive) | 0.485 µM (active) | < 0.01 µM (active) |  | 1 µM (active) | 0.64 µM (active) | 1 µM (active) | 1 µM (active) | 1 µM (active) | 1 µM (active)
5 | CCOC(=O)NC(=O)c1cn(CCCOC(=O)CCCCCCCCC(=O)OCCCn2cc(C(=O)NC(=O)OCC)c(=O)[nH]c2=O)c(=O)[nH]c1=O | 16.4 µM (inactive) | 7.28 µM (inactive) |  | 15 µM (inactive) | 26 µM (inactive) |  |  | 21.1 µM (inactive) | 23 µM (inactive) | 16.9 µM (inactive) | 17.5 µM (inactive) | 18.2 µM (inactive) | 
6 | Cc1ccc(S(=O)(=O)OC(COC(=O)c2ccccc2)C(OS(=O)(=O)c2ccc(C)cc2)C(OS(=O)(=O)c2ccc(C)cc2)C(COC(=O)c2ccccc2)OS(=O)(=O)c2ccc(C)cc2)cc1 (centres undefined) | > 100 µM (inactive) | > 100 µM (inactive) | > 100 µM (inactive) | > 100 µM (inactive) | > 100 µM (inactive) | > 100 µM (inactive) | > 100 µM (inactive) | > 100 µM (inactive) | > 100 µM (inactive) | > 100 µM (inactive) | > 10 µM (inactive) | > 100 µM (inactive) | > 100 µM (inactive)
7 | CC(C)CCCC(C)[C@H]1CCC2[C@@H]3CCC4Nc5c(cnn5-c5ccccc5)C[C@]4(C)C3CC[C@@]21C (some centres undefined) |  | 5.11 µM (inactive) | 28.7 µM (inactive) | 21.5 µM (inactive) | 14.3 µM (inactive) | 29.6 µM (inactive) | 43.1 µM (inactive) | 29.8 µM (inactive) | 61 µM (inactive) | 44.5 µM (inactive) | 8.05 µM (inactive) | 8.75 µM (inactive) | 23.4 µM (inactive)
8 | Cc1cc(C)c(C(=O)/C=C/c2ccccc2)c(C)c1 | > 10 µM (inactive) | 36.5 µM (inactive) | 8.02 µM (inactive) | 23 µM (inactive) | 34.3 µM (inactive) | 35.2 µM (inactive) | 19.1 µM (inactive) | 38.4 µM (inactive) | 15.5 µM (inactive) | 33.8 µM (inactive) | 31.8 µM (inactive) | 29 µM (inactive) | 10.4 µM (inactive)
9 | CCOC(=O)CCC(NC(=O)c1ccc(/N=C/c2nc3ccccc3nc2-c2ccccc2)cc1)C(=O)OCC (centres undefined) | > 100 µM (inactive) | > 100 µM (inactive) | > 100 µM (inactive) | > 100 µM (inactive) | > 100 µM (inactive) | > 100 µM (inactive) | > 100 µM (inactive) | > 100 µM (inactive) | 13.9 µM (inactive) | > 100 µM (inactive) | > 100 µM (inactive) | > 100 µM (inactive) | > 100 µM (inactive)
10 | COC1=CC(=O)NCCN1 | > 100 µM (inactive) | > 100 µM (inactive) | > 100 µM (inactive) | 18.2 µM (inactive) | > 100 µM (inactive) | > 100 µM (inactive) | > 100 µM (inactive) | > 100 µM (inactive) | > 100 µM (inactive) | > 100 µM (inactive) | > 100 µM (inactive) | 41.8 µM (inactive) | > 100 µM (inactive)
11 | CCOCN1COCN/C1=N/C#N | > 100 µM (inactive) | > 100 µM (inactive) | > 100 µM (inactive) | 17.9 µM (inactive) | > 100 µM (inactive) | > 100 µM (inactive) | > 100 µM (inactive) | > 100 µM (inactive) | > 100 µM (inactive) | > 100 µM (inactive) | > 100 µM (inactive) | 28.3 µM (inactive) | > 100 µM (inactive)
12 | CC(=O)Nc1ccc(-c2nnc(SCC(=O)Nc3cccc(C)c3)o2)cc1 | 13.8 µM (inactive) | 16.7 µM (inactive) | 14.1 µM (inactive) | 12.8 µM (inactive) | 28.7 µM (inactive) | 10.8 µM (inactive) | 4.4 µM (inactive) | 10.7 µM (inactive) | 16.3 µM (inactive) | 12.3 µM (inactive) | 8.26 µM (inactive) | 14.8 µM (inactive) | 12.5 µM (inactive)
13 | Nc1nc(=O)n(C2CC(O)C(O)C(CO)O2)cc1F (centres undefined) | > 100 µM (inactive) |  | > 100 µM (inactive) | > 100 µM (inactive) | > 100 µM (inactive) |  | > 100 µM (inactive) | > 100 µM (inactive) | > 100 µM (inactive) | > 100 µM (inactive) | > 100 µM (inactive) | > 100 µM (inactive) | > 100 µM (inactive)
14 | CN(C)C(=O)/N=c1\ss/c(=N\C(=S)N(C)C)n1-c1ccccc1 | 18.1 µM (inactive) | > 100 µM (inactive) | 42.9 µM (inactive) | 28.3 µM (inactive) | > 68.9 µM (inactive) | 57.5 µM (inactive) | < 0.01 µM (active) | 23 µM (inactive) | 20.9 µM (inactive) | 15.5 µM (inactive) | 14.4 µM (inactive) | 35.3 µM (inactive) | > 57 µM (inactive)
15 | COc1cc(/C=C2/C(=O)N(C(=O)OC(C)C)C(Cc3cc(OC)c(OC)c(C)c3OC)C(=O)N2Cc2ccccc2)c(OC)c(C)c1OC (centres undefined) | > 100 µM (inactive) | > 100 µM (inactive) | 22.2 µM (inactive) | 14.8 µM (inactive) | > 100 µM (inactive) | 54.2 µM (inactive) | 3.74 µM (inactive) | > 100 µM (inactive) | 28.2 µM (inactive) | 7.94 µM (inactive) | > 100 µM (inactive) | 27.2 µM (inactive) | 27.1 µM (inactive)
16 | N#Cc1ccccc1NC(=O)C(=O)C(C(=O)c1ccccc1-c1ccccc1)C1OC(=O)c2ccccc21 (centres undefined) | 18.2 µM (inactive) |  | 10.4 µM (inactive) | 29 µM (inactive) | 11.9 µM (inactive) | 18.1 µM (inactive) | 7.73 µM (inactive) | 53.6 µM (inactive) | 20.3 µM (inactive) | 15.2 µM (inactive) | 16.7 µM (inactive) | 21.1 µM (inactive) | 16 µM (inactive)
17 | COc1ccc2cc3c4cc(OC)c(OC)cc4ccn3c2c1 | > 100 µM (inactive) | > 100 µM (inactive) | > 100 µM (inactive) | > 100 µM (inactive) | > 100 µM (inactive) | > 100 µM (inactive) | > 100 µM (inactive) | > 100 µM (inactive) | > 100 µM (inactive) | > 100 µM (inactive) | > 100 µM (inactive) | > 100 µM (inactive) | > 100 µM (inactive)
18 | COC(=O)c1ncc2c(=O)[nH]c3ccccc3c2c1C(=O)OC | > 100 µM (inactive) | > 100 µM (inactive) | > 100 µM (inactive) | > 100 µM (inactive) | > 100 µM (inactive) | > 100 µM (inactive) |  | > 100 µM (inactive) | > 100 µM (inactive) | > 100 µM (inactive) | > 100 µM (inactive) |  | > 100 µM (inactive)
19 | Cc1ccc(NC(=O)c2cc3cc(/N=N/c4ccc(Br)cc4)ccc3oc2=O)cc1 | > 100 µM (inactive) | 30.5 µM (inactive) | > 100 µM (inactive) | 86.9 µM (inactive) | > 10 µM (inactive) | 47.6 µM (inactive) | > 100 µM (inactive) | 53 µM (inactive) |  | > 100 µM (inactive) |  | > 100 µM (inactive) | > 100 µM (inactive)
20 | CCC(=O)OC1CCn2c1nc1c2C(=O)C(C)=C(NC(C)=O)C1=O (centres undefined) | 2.22 µM (inactive) | 1.92 µM (inactive) | 1.61 µM (inactive) | 1.49 µM (inactive) | 11.7 µM (inactive) | 1.92 µM (inactive) | 1.54 µM (inactive) | 3.59 µM (inactive) | 0.641 µM (active) | 1.69 µM (inactive) | 1.93 µM (inactive) | 3.52 µM (inactive) | 1.89 µM (inactive)
21 | CC1(C)OC(=O)[C@@](C)([C@H](O)c2ccccc2)O1 | > 10 µM (inactive) | 46.3 µM (inactive) | 28.7 µM (inactive) | > 100 µM (inactive) | > 100 µM (inactive) | > 100 µM (inactive) | 67 µM (inactive) | > 100 µM (inactive) | > 100 µM (inactive) | > 100 µM (inactive) | 78.2 µM (inactive) |  | > 100 µM (inactive)
22 | CCOC(=O)C1S(=O)(=O)OCCOS1(=O)=O | > 100 µM (inactive) | > 100 µM (inactive) | > 100 µM (inactive) | > 100 µM (inactive) | > 100 µM (inactive) | > 100 µM (inactive) | > 100 µM (inactive) |  | > 100 µM (inactive) | > 100 µM (inactive) | > 100 µM (inactive) | > 100 µM (inactive) | > 100 µM (inactive)
